Experimental data from patent publication US10730863B2, “Bridged bicyclic compounds as farnesoid X receptor modulators” (BRISTOL-MYERS SQUIBB COMPANY, priority 2017, dated 2020).

Each compound was assayed against FXR (Homo sapiens (Human), UniProt Q96RI1) (assay: FXR EC50 (FXR agonist activity reported with each example)).
Assay type: cell-based

Sequence of FXR (Q96RI1 262-486): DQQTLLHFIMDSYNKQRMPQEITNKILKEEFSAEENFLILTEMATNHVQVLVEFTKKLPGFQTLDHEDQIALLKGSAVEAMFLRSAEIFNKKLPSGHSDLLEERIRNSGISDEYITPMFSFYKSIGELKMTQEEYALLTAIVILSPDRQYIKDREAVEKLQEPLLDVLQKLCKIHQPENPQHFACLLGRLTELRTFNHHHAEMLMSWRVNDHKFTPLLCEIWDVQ

Row | Structure (SMILES) | EC50
1 | O=C(O)c1cc2ccc(OCC34CCC(OCc5c(-c6c(Cl)cncc6Cl)noc5C5CC5)(CC3)CC4)cc2cn1 [Example 287] | 96 nM
2 | O=C(O)c1ccc(-c2noc(C34CCC(COCc5c(-c6c(Cl)cccc6Cl)noc5C5CC5)(CC3)CO4)n2)cc1 [Example 211] | 980 nM
3 | O=C(O)c1cc(OCC2CC2)c2cc(OCC34CCC(OCc5c(-c6c(Cl)cncc6Cl)noc5C5CC5)(CC3)CC4)ccc2n1 [Example 346] | 18 nM
4 | O=C(O)c1ccc(OCC23CCC(OCc4c(-c5c(Cl)cncc5Cl)noc4C4CC4)(CC2)CC3)nc1 [Example 114, 6-((4-((5-cyclopropyl-3-(3,5-dichloropyridin-4-yl)isoxazol-4-yl)methoxy)bicyclo[2.2.2]octan-1-yl)methoxy)nicotinic acid] | 140 nM
5 | O=C(O)c1cccc(OCC23CCC(OCc4c(-c5c(Cl)cccc5Cl)noc4C4CC4)(CC2)CC3)n1 [Example 110, 6-((4-((5-cyclopropyl-3-(2,6-dichlorophenyl)isoxazol-4-yl)methoxy)bicyclo[2.2.2]octan-1-yl)methoxy)picolinic acid] | 52 nM
6 | O=C(O)c1cccc(C23CCC(COCc4c(-c5ccccc5OC(F)(F)F)noc4C4CC4)(CC2)CO3)c1 [Example 204] | 440 nM
7 | CC1(c2noc(C3CC3)c2COC23CCC(c4ccc5c(C(=O)O)cccc5n4)(CC2)CC3)CC1(F)F (centres unmarked) [Example 425, 2-(4-((5-cyclopropyl-3-(2,2-difluoro-1-methylcyclopropyl)isoxazol-4-yl)methoxy)bicyclo[2.2.2]octan-1-yl)quinoline-5-carboxylic acid] | 3400 nM
8 | O=C(O)c1cccc(NC(=O)C23CCC(C=Cc4c(-c5c(Cl)cccc5Cl)noc4C4CC4)(CC2)CC3)c1 [Example 190] | 3500 nM
9 | O=C(O)c1cc(OC(F)F)c2cc(C#CC34CCC(OCc5c(-c6c(Cl)cncc6Cl)noc5C5CC5)(CC3)CC4)ccc2n1 [Example 376] | 27 nM
10 | CN(Cc1ccccc1C(=O)O)C(=O)C12CCC(OCc3c(-c4c(Cl)cccc4Cl)noc3C3CC3)(CC1)CC2 [Example 144, 2-((4-((5-cyclopropyl-3-(2,6-dichlorophenyl)isoxazol-4-yl)methoxy)-N-methylbicyclo[2.2.2]octane-1-carboxamido)methyl)benzoic acid] | 160 nM
11 | CC(C)Oc1ccc(-c2noc(C34CCC(OCc5c(-c6c(Cl)cncc6Cl)noc5C5CC5)(CC3)CC4)n2)cc1C(=O)O [Example 256, 5-(5-(4-((5-cyclopropyl-3-(3,5-dichloropyridin-4-yl)isoxazol-4-yl)methoxy)bicyclo[2.2.2]octan-1-yl)-1,2,4-oxadiazol-3-yl)-2-isopropoxybenzoic acid] | 260 nM
12 | O=C(O)c1ccc2nc(C34CCC(/C=C/c5c(-c6c(Cl)cncc6Cl)noc5C5CC5)(CC3)CC4)sc2c1 [Example 505, (E)-2-(4-(2-(5-cyclopropyl-3-(3,5-dichloropyridin-4-yl)isoxazol-4-yl)vinyl)bicyclo[2.2.2]octan-1-yl)benzo[d]thiazole-6-carboxylic acid] | 88 nM
13 | O=C(O)c1ccc(C(O)C23CCC(OCc4c(-c5c(Cl)cccc5Cl)noc4C4CC4)(CC2)CC3)c(F)c1 (centres unmarked) [Example 125, 4-((4-((5-cyclopropyl-3-(2,6-dichlorophenyl)isoxazol-4-yl)methoxy)bicyclo[2.2.2]octan-1-yl)(hydroxy)methyl)-3-fluorobenzoic acid] | 1600 nM
14 | O=C(O)c1cc(C(F)(F)F)cc2nc(C34CCC(OCc5c(C(C6CC6)C6CC6)noc5C5CC5)(CC3)CC4)ccc12 [Example 423, 2-(4-((5-cyclopropyl-3-(dicyclopropylmethyl)isoxazol-4-yl)methoxy)bicyclo[2.2.2]octan-1-yl)-7-(trifluoromethyl)quinoline-5-carboxylic acid] | 67 nM
15 | O=C(O)c1cccc(-c2noc(C34CCC(OCc5c(-c6c(Cl)cccc6Cl)noc5C5CC5)(CC3)CC4)n2)n1 [Example 13, 6-(5-(4-((5-cyclopropyl-3-(2,6-dichlorophenyl)isoxazol-4-yl)methoxy)bicyclo[2.2.2]octan-1-yl)-1,2,4-oxadiazol-3-yl)picolinic acid] | 270 nM
16 | O=C(O)c1cc(C(F)(F)F)cc2nc(C34CCC(OCc5c(-c6c(Cl)cncc6Cl)noc5C5CC5)(CC3)CC4)ccc12 [Example 420] | 3 nM
17 | NC(=O)c1cc(C(F)(F)F)cc(C23CCC(COCc4c(-c5c(Cl)cncc5Cl)noc4C4CC4)(CC2)CO3)c1 [Example 489, 3-(4-(((5-cyclopropyl-3-(3,5-dichloropyridin-4-yl)isoxazol-4-yl)methoxy)methyl)-2-oxabicyclo[2.2.2]octan-1-yl)-5-(trifluoromethyl)benzamide] | 1400 nM
18 | O=C(O)c1cccn2c(C#CC34CCC(OCc5c(-c6c(Cl)cncc6Cl)noc5C5CC5)(CC3)CC4)cnc12 [Example 397] | 48 nM
19 | O=C(O)c1ccc2nc(C34CCC(OCc5c(-c6c(Cl)cccc6Cl)noc5C5CC5)(CC3)CC4)ccc2n1 [Example 136, 6-(4-((5-cyclopropyl-3-(2,6-dichlorophenyl)isoxazol-4-yl)methoxy)bicyclo[2.2.2]octan-1-yl)-1,5-naphthyridine-2-carboxylic acid] | 36 nM

Row | Structure (SMILES) | EC50
20 | O=C(O)c1ccc(NC(=S)C23CCC(COCc4c(-c5c(Cl)cccc5Cl)noc4C4CC4)(CC2)CC3)c(Cl)c1 [Example 171, 3-chloro-4-(4-(((5-cyclopropyl-3-(2,6-dichlorophenyl)isoxazol-4-yl)methoxy)methyl)bicyclo[2.2.2]octane-1-carbothioamido)benzoic acid] | 4700 nM
21 | O=C(O)c1ccc(OC2CCC2)c2nc(C34CCC(OCc5c(-c6c(Cl)cncc6Cl)noc5C5CC5)(CC3)CC4)ccc12 [Example 405] | 28 nM
22 | O=C(O)Cc1cccc(OCC23CCC(OCc4c(-c5c(Cl)cccc5Cl)noc4C4CC4)(CC2)CC3)c1 [Example 106, 2-(3-((4-((5-cyclopropyl-3-(2,6-dichlorophenyl)isoxazol-4-yl)methoxy)bicyclo[2.2.2]octan-1-yl)methoxy)phenyl)acetic acid] | 160 nM
23 | O=C(O)c1ccc(OC2CCOCC2)c2nc(C34CCC(OCc5c(-c6c(Cl)cncc6Cl)noc5C5CC5)(CC3)CC4)ccc12 [Example 414] | 29 nM
24 | COc1cc(-c2noc(C34CCC(OCc5c(-c6c(Cl)cncc6Cl)noc5C5CC5)(CC3)CC4)n2)cnc1C(=O)O [Example 265, 5-(5-(4-((5-cyclopropyl-3-(3,5-dichloropyridin-4-yl)isoxazol-4-yl)methoxy)bicyclo[2.2.2]octan-1-yl)-1,2,4-oxadiazol-3-yl)-3-methoxypicolinic acid] | 1500 nM
25 | O=C(O)c1cc(C#CC23CCC(OCc4c(-c5c(Cl)cncc5Cl)noc4C4CC4)(CC2)CC3)cc2cn[nH]c12 [Example 401] | 74 nM
26 | O=C(O)c1coc(C23CCC(COCc4c(-c5c(Cl)cccc5Cl)noc4C4CC4)(CC2)CC3)n1 [Example 177, 2-(4-(((5-cyclopropyl-3-(2,6-dichlorophenyl)isoxazol-4-yl)methoxy)methyl)bicyclo[2.2.2]octan-1-yl)oxazole-4-carboxylic acid] | 1800 nM
27 | O=C(O)c1cn2ccc(C#CC34CCC(OCc5c(-c6c(Cl)cncc6Cl)noc5C5CC5)(CC3)CC4)cc2n1 [Example 394] | 180 nM
28 | Cn1nc(C(=O)O)c2ccc(C34CCC(OCc5c(-c6c(Cl)cncc6Cl)noc5C5CC5)(CC3)CC4)nc21 [Example 365] | 49 nM
29 | O=C(O)c1cnc(OCC23CCC(OCc4c(-c5c(Cl)cncc5Cl)noc4C4CC4)(CC2)CC3)c(C(F)(F)F)c1 [Example 279, 6-((4-((5-cyclopropyl-3-(3,5-dichloropyridin-4-yl)isoxazol-4-yl)methoxy)bicyclo[2.2.2]octan-1-yl)methoxy)-5-(trifluoromethyl)nicotinic acid] | 190 nM
30 | CC(C)Oc1cc(Cl)c2nc(C34CCC(OCc5c(-c6c(Cl)cncc6Cl)noc5C5CC5)(CC3)CC4)ccc2c1C(=O)O [Example 427] | 5 nM
31 | O=C(O)c1cc(C2CC2)c2cc(OCC34CCC(OCc5c(-c6c(Cl)cncc6Cl)noc5C5CC5)(CC3)CC4)ccc2n1 [Example 324, 4-cyclopropyl-6-((4-((5-cyclopropyl-3-(3,5-dichloropyridin-4-yl)isoxazol-4-yl)methoxy)bicyclo[2.2.2]octan-1-yl)methoxy)quinoline-2-carboxylic acid] | 22 nM
32 | COc1cc(C#CC23CCC(OCc4c(-c5c(Cl)cncc5Cl)noc4C4CC4)(CC2)CC3)cc(C(=O)O)c1 [Example 380] | 24 nM
33 | O=C(O)c1csc(C23CCC(COCc4c(-c5ccccc5OC(F)(F)F)noc4C4CC4)(CC2)CO3)n1 [Example 214] | 1400 nM
34 | O=C(O)c1ncc(OCC23CCC(OCc4c(-c5c(Cl)cncc5Cl)noc4C4CC4)(CC2)CC3)c2ccccc12 [Example 292, 4-((4-((5-cyclopropyl-3-(3,5-dichloropyridin-4-yl)isoxazol-4-yl)methoxy)bicyclo[2.2.2]octan-1-yl)methoxy)isoquinoline-1-carboxylic acid] | 9 nM
35 | O=C(O)c1cc(OC(CO)CCl)c2cc(OCC34CCC(OCc5c(-c6c(Cl)cncc6Cl)noc5C5CC5)(CC3)CC4)ccc2n1 (centres unmarked) [Example 354, 4-((1-chloro-3-hydroxypropan-2-yl)oxy)-6-((4-((5-cyclopropyl-3-(3,5-dichloropyridin-4-yl)isoxazol-4-yl)methoxy)bicyclo[2.2.2]octan-1-yl)methoxy)quinoline-2-carboxylic acid] | 200 nM
36 | O=C(O)c1ccc(-c2noc(C34CCC(/C=C\c5c(-c6c(Cl)cccc6Cl)noc5C5CC5)(CC3)CC4)n2)cc1 [Example 164] | 1600 nM
37 | O=C(O)c1ccc2cc(OCC34CCC(OCc5c(-c6c(Cl)cccc6Cl)noc5C5CC5)(CC3)CC4)ccc2n1 [Example 105, 6-((4-((5-cyclopropyl-3-(2,6-dichlorophenyl)isoxazol-4-yl)methoxy)bicyclo[2.2.2]octan-1-yl)methoxy)quinoline-2-carboxylic acid] | 76 nM
38 | O=C(O)c1cc(C2CC2)c2cc(OCC34CCC(OCc5c(-c6c(Cl)cncc6Cl)noc5C5CC5)(CC3)CC4)cc(F)c2n1 [Example 311, 4-cyclopropyl-6-((4-((5-cyclopropyl-3-(3,5-dichloropyridin-4-yl)isoxazol-4-yl)methoxy)bicyclo[2.2.2]octan-1-yl)methoxy)-8-fluoroquinoline-2-carboxylic acid] | 9 nM
